Test [1] addresses T1, HO-2 (rat brain) (Rattus norvegicus, UniProt P23711).
T1 construct: brain microsomes were used as a source of HO-2; from tissue; host or cells: brain microsomal fraction of adult male Sprague-Dawley rats
T1 sequence (P23711 1-315): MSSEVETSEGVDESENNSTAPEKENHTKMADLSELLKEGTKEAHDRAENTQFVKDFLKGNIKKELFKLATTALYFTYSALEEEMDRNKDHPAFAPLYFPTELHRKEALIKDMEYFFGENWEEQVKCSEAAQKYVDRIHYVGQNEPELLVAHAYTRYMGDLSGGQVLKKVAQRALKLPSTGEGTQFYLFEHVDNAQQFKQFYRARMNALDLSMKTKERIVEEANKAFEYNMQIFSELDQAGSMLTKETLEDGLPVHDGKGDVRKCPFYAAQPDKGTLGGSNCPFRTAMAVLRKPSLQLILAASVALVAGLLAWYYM
Briefly: HO enzymatic activity in rat brain microsomal fraction (CO formed from methemalbumin, gas chromatography). Format: biochemical. The method, then: (§1) Incubations for HO activity analysis were done under conditions for which the rate of CO formation (pmol CO×min^−1×mg protein^−1) was linear with respect to time and microsomal protein concentration. Briefly, reaction mixtures (150 μL) consisting of 100 mM phosphate buffer (pH 7.4), 50 μM methemalbumin, and 1 mg/mL protein were pre-incubated with the inhibitors at final concentrations ranging from 0.1-100 μM for 10 minutes at 37° C. Reactions were initiated by adding NADPH at a final concentration of 1 mM and incubations were performed for an additional 15 minutes at 37° C.
(§2) Incubations for HO activity analysis were done under conditions for which the rate of CO formation (pmol CO/mg protein/minute) was linear with respect to time and microsomal protein concentration. Briefly, reaction mixtures (150 μL) consisting of 100 mM phosphate buffer (pH 7.4), 50 μM methemalbumin and 1 mg/mL protein were pre-incubated with the vehicle (ethanol or water in which the inhibitors were dissolved), or inhibitors at final concentrations ranging from 0.1-1000 μM for 10 minutes at 37° C. Reactions were initiated by adding β-NADPH at a final concentration of 1 mM and incubations were carried out for an additional 15 minutes at 37° C. Reactions were stopped by instantly freezing the reaction mixture on pulverized dry ice and CO formation was measured by gas chromatography using a TA 3000R Process Gas Analyzer (Trace Analytical/Ametek, Newark, Del., USA).
(§3) The values on the abscissa represent the decimal logarithm of the inhibitor's concentration (in μM), whereas the values of the activity on the ordinate are expressed as a percentage of the control experiments without inhibitor.
(§4) The IC50 values for the replicate experiments were employed to generate the reported standard deviation value.

The target in test [2] is T2, HO-1 (rat spleen) (Rattus norvegicus, UniProt P06762).
T2 construct: Spleen microsomes were used as a source of HO-1; from tissue; host or cells: spleen microsomal fraction of adult male Sprague-Dawley rats
T2 sequence (P06762 1-289): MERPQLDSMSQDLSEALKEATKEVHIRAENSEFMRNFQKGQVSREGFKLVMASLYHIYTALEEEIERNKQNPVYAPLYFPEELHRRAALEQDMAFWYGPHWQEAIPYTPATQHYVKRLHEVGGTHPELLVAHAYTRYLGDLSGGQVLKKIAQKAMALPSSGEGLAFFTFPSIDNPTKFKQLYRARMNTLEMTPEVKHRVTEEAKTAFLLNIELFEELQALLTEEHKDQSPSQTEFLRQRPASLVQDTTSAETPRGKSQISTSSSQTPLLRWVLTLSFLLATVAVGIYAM
Put plainly: HO enzymatic activity in rat spleen microsomal fraction (CO formed from methemalbumin, gas chromatography). The format is biochemical. The note with it: rat spleen microsomes; average ± standard deviation of replicate experiments; read-out: IC50 HO-1 (rat spleen)/μM. As for the experimental part:
as §1, §2, §3, §4

The mark [3] stands for this setting: rat brain microsomes, average ± standard deviation of replicate experiments, read-out: IC50 HO-2 (rat brain)/μM.

Structures can show the parent of a compound that is named as a salt. Where two headings read alike, the source gives them in different places. Some results are limits rather than exact numbers.

`Fc1ccc(COC(Cn2ccnc2)c2ccc(CCc3ccccc3)cc2)cc1` (racemic) [(±)-1-[2-(4-fluoro-benzyloxy)-2-(4-phenethyl-phenyl)-ethyl]-1H-imidazole]: the IC50 in test [1] (setting [3]) is above 100 µM; in test [2], around 7 µM.

With `CS(=O)(=O)c1nnnn1CC(=O)CCc1ccccc1` [1-(5-Methanesulfonyl-tetrazol-1-yl)-4-phenyl-butan-2-one], the IC50 in test [1] (setting [3]) and in test [2] was above 100 µM each time.

Take `FC[C@@H]1CO[C@@](CCc2ccc(Cl)cc2)(Cn2ccnc2)O1` [drawing 85, (2R,4S)-2-[2-(4-chlorophenyl)ethyl]-2-[(1H-imidazol-1-yl)methyl]-4-(fluoromethyl)-1,3-dioxolane hydrochloride]: the IC50 in test [1] (setting [3]) is 4.4 ± 0.4 µM; in test [2], 1.2 ± 0.01 µM.

Consider `Clc1ccc(CC[C@@]2(Cn3ccnc3)OCC(COc3ccc(Br)cc3)O2)cc1` (stereo in doubt) [(2R,4S)-1-{4-(4-bromo-phenoxymethyl)-2-[2-(4-chloro-phenyl)-ethyl]-[1,3]dioxolan-2-ylmethyl}-1H-imidazole hydrochloride], for which the IC50 in test [1] (setting [3]) was determined as 22 ± 8 µM; in test [2], 3.5 ± 0.2 µM.

On to `CCOC(=O)N1CCC(Nc2nc3ccccc3[nH]2)CC1`, for which the IC50 in test [1] (setting [3]) and in test [2] was above 100 µM in each case.

Consider `O=C(Cn1ccnc1)c1cc(Cl)ccc1Cl` [1-(2,5-dichloro-phenyl)-2-imidazol-1-yl-ethanone hydrochloride], for which the IC50 turned out to be 58 ± 10 µM in test [1] (setting [3]) and 6.6 ± 0.2 µM in test [2].

Take `OC(CCc1ccccc1)Cn1cncn1` (racemic) [(±)-4-phenyl-1-[1,2,4]triazol-1-yl-butan-2-ol hydrochloride]: the results for the IC50 in test [1] and in test [2] were 54 ± 12 µM and 10.2 ± 0.2 µM, respectively.

In the case of `O=C(Cn1ccnc1)c1ccc(Cl)cc1Cl` [1-(2,4-dichloro-phenyl)-2-imidazol-1-yl-ethanone hydrochloride], the IC50 in test [1] (setting [3]) came out at 15 ± 1 µM; in test [2], 2.2 ± 0.5 µM.

Regarding `O=C(CCc1ccc(C(F)(F)F)cc1)Cn1ccnc1` [4-(4-(Trifluoromethyl)phenyl)-1-(1H-imidazol-1-yl)-2-butanone hydrochloride], the IC50 in test [1] (setting [3]) was determined as 1.4 ± 0.1 µM; in test [2], 0.25 ± 0.01 µM.

For the compound `Clc1ccc(/C(Cn2ccnc2)=N\Nc2ccccc2)cc1`, the IC50 in test [1] (setting [3]) and in test [2] was above 100 µM throughout.

Regarding `c1ccc(CCC2(Cn3nccn3)OCCO2)cc1` [2-(2-Phenethyl-[1,3]dioxolan-2-ylmethyl)-2H-[1,2,3]triazole], the IC50 in test [1] (setting [3]) and in test [2] was above 100 µM each time.

In the case of `Clc1ccc(CC[C@@]2(Cn3ccnc3)OCC(COc3ccc(C45CC6CC(CC(C6)C4)C5)cc3)O2)cc1` (stereo in doubt) [(2R,4S)-2-[2-(4-chlorophenyl)ethyl]-2-[(1H-imidazol-1-yl)methyl]-4-[(4-adamantan-1-yl-phenoxy)methyl]-1,3-dioxolane hydrochloride], the IC50 in test [1] (setting [3]) and in test [2] was above 100 µM throughout.

Consider `c1ccc(CCC2(Cn3ccnc3)OCCO2)cc1` [2-[2-phenylethyl]-2-[(1H-imidazol-1-yl)methyl]-1,3-dioxolane hydrochloride], for which the results for the IC50 in test [1] (setting [3]) and in test [2] were above 100 µM and 0.7 ± 0.4 µM, respectively.

For the compound `CCC(=O)Cn1ccnc1` [1-(1H-Imidazol-1-yl)-butan-2-one hydrochloride], the IC50 in test [1] (setting [3]) and in test [2] was above 100 µM throughout.

Regarding `COc1ccc(CCN2CCC(Nc3nc4ccccc4n3Cc3ccccc3)CC2)cc1`, the IC50 was 60 ± 18 µM in test [1] (setting [3]) and above 100 µM in test [2].

Take `Brc1ccc(C2(Cn3ccnc3)OCCO2)cc1` [1-[2-(4-bromo-phenyl)-[1,3]dioxolan-2-ylmethyl]-1H-imidazole hydrochloride]: the IC50 in test [1] (setting [3]) is above 100 µM; in test [2], 12 ± 2 µM.

For `O=C(CCc1ccc(OC(=O)c2ccccc2)cc1)Cn1ccnc1` [4-(4-(1H-Imidazol-1-yl)-3-oxobutyl)phenyl benzoate hydrochloride], the IC50 in test [1] (setting [3]) was above 100 µM; in test [2] it was 6.7 ± 0.2 µM.

For `c1ccc(-c2ccc(C3(Cn4ccnc4)OCCO3)cc2)cc1` [1-(2-biphenyl-4-yl-[1,3]dioxolan-2-ylmethyl)-1H-imidazole hydrochloride], the IC50 in test [1] (setting [3]) was above 100 µM; in test [2], 16.2 ± 0.4 µM.

Take `c1cn(CCC23CC4CC(CC(C4)C2)C3)cn1` [1-(2-adamantan-1-yl-ethyl)-1H-imidazole hydrochloride]: the IC50 is above 100 µM in test [1] (setting [3]) and 3 ± 1 µM in test [2].

For the compound `c1ccc2[nH]c(CN3CCCC3)nc2c1`, the IC50 in test [1] (setting [3]) and in test [2] was above 100 µM in each case.

For `O=[N+]([O-])c1ccc(SC[C@@H]2CO[C@@](CCc3ccc(Cl)cc3)(Cn3ccnc3)O2)cc1` [(2R,4S)-2-[2-(4-chlorophenyl)ethyl]-2-[(1H-imidazol-1-yl)methyl]-4-[{(4-nitrophenyl)thio}meth-yl]-1,3-dioxolane hydrochloride], the IC50 in test [1] (setting [3]) was 19 ± 2 µM; in test [2] it was 6 ± 2 µM.

On to `O=C(Cn1cnnc1)c1ccc(Cl)cc1`, for which the IC50 in test [1] (setting [3]) and in test [2] was above 100 µM throughout.

In the case of `O=C(Cn1ccnc1)c1ccc(I)cc1` [2-imidazol-1-yl-1-(4-iodo-phenyl)ethanone], the IC50 in test [1] (setting [3]) stood at 25 ± 5 µM; in test [2], 4 ± 1 µM.

Take `O=C(CCc1ccc([N+](=O)[O-])cc1)Cn1ccnc1` [1-(1H-Imidazol-1-yl)-4-(4-nitro-phenyl)-butan-2-one hydrochloride]: the IC50 was found to be 6.2 ± 0.1 µM in test [1] (setting [3]) and 1.8 ± 0.4 µM in test [2].

Regarding `Cn1ccnc1` [1-methylimidazole hydrochloride, reference compound], the IC50 in test [1] (setting [3]) and in test [2] was above 100 µM each time.

On to `OC[C@@H]1CO[C@@](CCc2ccc(Cl)cc2)(Cn2ccnc2)O1` [(2R,4R)-2-[2-(4-chlorophenyl)ethyl]-2-[(1H-imidazol-1-yl)methyl]-4-(hydroxymethyl)-1,3-dioxolane hydrochloride], for which the IC50 was above 100 µM in test [1] (setting [3]) and 12 ± 2 µM in test [2].

Consider `CSc1ncn(CC(=O)CCc2ccccc2)n1` [1-(3-Methylsulfanyl-[1,2,4]triazol-1-yl)-4-phenyl-butan-2-one], for which the IC50 in test [1] (setting [3]) and in test [2] was above 100 µM in each case.

With `C[C@@H]1CO[C@](CCc2ccc(Cl)cc2)(Cn2ccnc2)O1` [(2S,4R)-2-[2-(4-chlorophenyl)ethyl]-2-[(1H-imidazol-1-yl)methyl]-4-methyl-1,3-dioxolane hydrochloride], the IC50 was above 100 µM in test [1] (setting [3]) and 20 ± 4 µM in test [2].

For `O=C(CCn1ccnc1)C(c1ccccc1)c1ccccc1` [4-(1H-Imidazol-1-yl)-1,1-diphenyl-butan-2-one hydrochloride], the IC50 in test [1] (setting [3]) was found to be 2.2 ± 0.2 µM; in test [2], 2.6 ± 0.1 µM.

With `Fc1ccc(-c2ccno2)cc1`, the IC50 in test [1] (setting [3]) and in test [2] was above 100 µM in each case.

On to `Clc1ccc(CC[C@@]2(Cn3ccnc3)OC[C@@H](CSc3ccccc3)O2)cc1` [(2R,4S)-2-[2-(4-chlorophenyl)ethyl]-2-[(1H-imidazol-1-yl)methyl]-4-[(phenylthio)methyl]-1,3-dioxolane hydrochloride], for which the IC50 in test [1] (setting [3]) is 34 ± 12 µM; in test [2] it was 1.03 ± 0.07 µM.

Regarding `c1ccc(CSCCn2ccnc2)cc1` [1-(2-benzylsulfanyl-ethyl)-1H-imidazole], the IC50 is above 10 µM in test [1] (setting [3]) and 4 ± 1 µM in test [2].

In the case of `O=C(Cn1ccnc1)c1ccc(CCc2ccccc2)cc1` [2-imidazol-1-yl-1-(4-phenethyl-phenyl)ethanone hydrochloride], the IC50 in test [1] (setting [3]) turned out to be 0.9 ± 0.1 µM; in test [2], 4 ± 2 µM.

In the case of `OC(CCc1ccccc1)Cn1ccnn1` (racemic) [(±)-4-phenyl-1-[1,2,3]triazol-1-yl-butan-2-ol hydrochloride], the IC50 was above 100 µM in test [1] (setting [3]) and 44 ± 1 µM in test [2].

For `O=C1c2ccccc2CC1n1ccnc1` (racemic) [(±)-2-imidazol-1-yl-indan-1-one hydrochloride], the IC50 in test [1] (setting [3]) and in test [2] was above 100 µM each time.

The values are drawn from patent publication US20140155445A1, “Compounds and Methods for Treating Cancer and Diseases of the Central Nervous System” (Osta Biotechnologies Inc., priority 2007, published 2014).
